Laboratory results: patent US10208067B2, “Compounds for treating spinal muscular atrophy” (Hoffmann-La Roche Inc., priority 2015, dated 2019)

Legend:
[1] = test system: full length SMN2 minigene mRNA (HEK293H cells stably transfected with SMN2-A minigene); assay: RT-qPCR assay for SMN2 minigene pre-mRNA splicing in cultured cells; format: cell-based; conditions: Homo sapiens, HEK293-H, Table 3 (title: production of full length SMN2 minigene mRNA), 24 hours, read-out: EC1.5x SMN protein
[2] = test system: SMN protein in SMA patient fibroblast cells (GM03813); assay: SMN protein assay (HTRF) in cultured cells; format: cell-based; conditions: Homo sapiens, SMA Type 1 patient fibroblasts, 48 hours; for EC (1.5-fold): concentration producing 1.5 times SMN protein vs vehicle, read-out: EC1.5x SMN protein; for maximal fold induction: relative to vehicle control, read-out: max. fold increase of SMN protein
Description: The SMN HTRF (homogeneous time resolved fluorescence) assay is used to quantify the level of SMN protein in SMA patient fibroblast cells treated with test compounds. Materials used and respective sources are listed below in Table 4.
Cells are thawed and cultured in DMEM-10% FBS for 72 hours. Cells are trypsinized, counted and re-suspended to a concentration of 25,000 cells/mL in DMEM-10% FBS. The cell suspensions are plated at 5,000 cells per well in a 96 well microtiter plate and incubated for […]. […] 1 μL of test compound solution is transferred to cell-containing wells and cells are incubated for 48 hours in a cell culture incubator (37° C., 5% CO2, 100% relative humidity). Triplicate samples are set up for each test compound concentration. After 48 hours, the supernatant is removed from the wells and 25 μL of the RIPA lysis buffer, containing protease inhibitors, is added to the wells and incubated with shaking at room temperature for 1 hour. 25 μL of the diluent is added and then 35 μL of the resulting lysate is transferred to a 384-well plate, where each well contains 5 μL of the antibody solution (1:100 dilution of anti-SMN d2 and anti-SMN cryptate in SMN reconstitution buffer). The plate is centrifuged for 1 minute to bring the solution to the bottom of the wells, then incubated overnight at room temperature. Fluorescence for each well of the plate at 665 nm and 620 nm is measured on an EnVision multilabel plate reader (Perkin-Elmer).
The normalized fluorescence signal is calculated for each sample, Blank and vehicle control well by dividing the signal at 665 nm by the signal at 620 nm. Normalizing the signal accounts for possible fluorescence quenching due to the matrix effect of the lysate. The ΔF value (a measurement of SMN protein abundance as a percent value) for each sample well is calculated by subtracting the normalized average fluorescence for the Blank control wells from the normalized fluorescence for each sample well, then dividing this difference by the normalized average fluorescence for the Blank control wells and multiplying the resulting value by 100. The ΔF value for each sample well represents the SMN protein abundance from test compound-treated samples. The ΔF value for each sample well is divided by the ΔF value for the vehicle control wells to calculate the fold increase in SMN protein abundance relative to the vehicle control. Table 5 provides EC1-5× concentrations for SMN protein expression that was obtained from the 7-point concentration data generated according to the above procedure for particular compounds of the present invention.
Table 6 provides the maximum fold increase of SMN protein that was obtained from the 7-point concentration data generated according to the above procedure for particular compounds of the present invention

Compound | EC (1.5-fold) [1] [µM] | EC (1.5-fold) [2] [µM] | maximal fold induction [2]
Cc1nc2ccc(-c3cc(=O)n4cc(N5CCN6CCC[C@@H]6C5)cc(C)c4n3)nn2n1 [Example 34, 7-[(8aR)-3,4,6,7,8,8a-hexahydro-1H-pyrrolo[1,2-a]pyrazin-2-yl]-9-methyl-2-(2-methyl-[1,2,4]triazolo[1,5-b]pyridazin-6-yl)pyrido[1,2-a]pyrimidin-4-one] | 0.0028 | 0.0191 | 1.8
Cc1nc2ccc(-c3cc(=O)n4cc(N5CC6(CCNCC6)C5)cc(C)c4n3)nn2n1 [Example 35, 7-(2,7-diazaspiro[3.5]nonan-2-yl)-9-methyl-2-(2-methyl-[1,2,4]triazolo[1,5-b]pyridazin-6-yl)pyrido[1,2-a]pyrimidin-4-one] | 0.0022 | 0.0082 | 1.9
Cc1nc2ccc(-c3cc(=O)n4cc(N5CCN6CCC[C@@H]6C5)ccc4n3)nn2n1 [Example 36, 7-[(8aR)-3,4,6,7,8,8a-hexahydro-1H-pyrrolo[1,2-a]pyrazin-2-yl]-2-(2-methyl-[1,2,4]triazolo[1,5-b]pyridazin-6-yl)pyrido[1,2-a]pyrimidin-4-one] | 0.0158 | 0.0997 | 1.92
Cc1nc2ccc(-c3cc(=O)n4cc(N5C[C@H](C)N[C@@H](C)C5)cc(C)c4n3)nn2n1 [Example 37, 7-[(3S,5S)-3,5-dimethylpiperazin-1-yl]-9-methyl-2-(2-methyl-[1,2,4]triazolo[1,5-b]pyridazin-6-yl)pyrido[1,2-a]pyrimidin-4-one] | 0.0026 | 0.0337 | 1.78
Cc1nc2ccc(-c3cc(=O)n4cc(N5CC6(CCNCC6)C5)ccc4n3)nn2n1 [Example 38, 7-(2,7-diazaspiro[3.5]nonan-2-yl)-2-(2-methyl-[1,2,4]triazolo[1,5-b]pyridazin-6-yl)pyrido[1,2-a]pyrimidin-4-one] | 0.002 | 0.0199 | 1.69
Cc1nc2ccc(-c3cc(=O)n4cc(N5CCN(C)CC5)ccc4n3)nn2n1 [Example 39, 7-(4-methylpiperazin-1-yl)-2-(2-methyl-[1,2,4]triazolo[1,5-b]pyridazin-6-yl)pyrido[1,2-a]pyrimidin-4-one] | 0.0272 | 0.09 | 1.74
Cc1nc2ccc(-c3cc(=O)n4cc(N5CCN[C@H](C)C5)cc(C)c4n3)nn2n1 [Example 40, 9-methyl-7-[(3R)-3-methylpiperazin-1-yl]-2-(2-methyl-[1,2,4]triazolo[1,5-b]pyridazin-6-yl)pyrido[1,2-a]pyrimidin-4-one] | 0.0088 | 0.0148 | 2.08
Cc1nc2ccc(-c3cc(=O)n4cc(N5CC[C@@H](N(C)C)C5)ccc4n3)nn2n1 [Example 41, 7-[(3R)-3-(dimethylamino)pyrrolidin-1-yl]-2-(2-methyl-[1,2,4]triazolo[1,5-b]pyridazin-6-yl)pyrido[1,2-a]pyrimidin-4-one] | 0.163 | 0.207 | 1.75
Cc1nc2ccc(-c3cc(=O)n4cc(N5C[C@H](C)N[C@@H](C)C5)ccc4n3)nn2n1 [Example 42, 7-[(3S,5S)-3,5-dimethylpiperazin-1-yl]-2-(2-methyl-[1,2,4]triazolo[1,5-b]pyridazin-6-yl)pyrido[1,2-a]pyrimidin-4-one] | 0.0083 | 0.0629 | 1.81
CCN1CCN(c2ccc3nc(-c4ccc5nc(C)nn5n4)cc(=O)n3c2)CC1 [Example 43, 7-(4-ethylpiperazin-1-yl)-2-(2-methyl-[1,2,4]triazolo[1,5-b]pyridazin-6-yl)pyrido[1,2-a]pyrimidin-4-one] | 0.0328 | 0.0562 | 2.02
Cc1nc2ccc(-c3cc(=O)n4cc(N5CCNC6(CC6)C5)ccc4n3)nn2n1 [Example 44, 7-(4,7-diazaspiro[2.5]octan-7-yl)-2-(2-methyl-[1,2,4]triazolo[1,5-b]pyridazin-6-yl)pyrido[1,2-a]pyrimidin-4-one] | 0.0578 | 0.265 | 2.02
Cc1nc2ccc(-c3cc(=O)n4cc(N5CCN[C@@H](C)C5)cc(C)c4n3)nn2n1 [Example 45, 9-methyl-7-[(3S)-3-methylpiperazin-1-yl]-2-(2-methyl-[1,2,4]triazolo[1,5-b]pyridazin-6-yl)pyrido[1,2-a]pyrimidin-4-one] | 0.0008 | 0.009 | 2.04
Cc1nc2ccc(-c3cc(=O)n4cc(N5CC6(CN(C)C6)C5)ccc4n3)nn2n1 [Example 46, 7-(6-methyl-2,6-diazaspiro[3.3]heptan-2-yl)-2-(2-methyl-[1,2,4]triazolo[1,5-b]pyridazin-6-yl)pyrido[1,2-a]pyrimidin-4-one] | 0.003 | 0.0314 | 1.75
Cc1nc2ccc(-c3cc(=O)n4cc(N5C[C@@H]6C[C@H]7CNC[C@]76C5)ccc4n3)nn2n1 [Example 47, 7-((3aR,4aR,7aS)-hexahydro-1H-cyclobuta[1,2-c:1,4-c′]dipyrrol-2(3H)-yl)-2-(2-methyl-[1,2,4]triazolo[1,5-b]pyridazin-6-yl)-4H-pyrido[1,2-a]pyrimidin-4-one] | 0.0041 | 0.0249 | 1.87
Cc1nc2ccc(-c3cc(=O)n4cc(N5CC6(CCNC6)C5)cc(C)c4n3)nn2n1 [Example 48, 7-(2,7-diazaspiro[3.4]octan-2-yl)-9-methyl-2-(2-methyl-[1,2,4]triazolo[1,5-b]pyridazin-6-yl)pyrido[1,2-a]pyrimidin-4-one] | 0.168 | 1.32 | 1.68
